Molecular target: 5-hydroxytryptamine receptor 2A (Homo sapiens, UniProt P28223)
Experiment: Agonist activity at human 5HT2A receptor expressed in HEK293 cells assessed as IP1 accumulation by HTRF assay
Assay type: functional, cell-based

5-hydroxytryptamine receptor 2A, sequence (P28223 whole entry): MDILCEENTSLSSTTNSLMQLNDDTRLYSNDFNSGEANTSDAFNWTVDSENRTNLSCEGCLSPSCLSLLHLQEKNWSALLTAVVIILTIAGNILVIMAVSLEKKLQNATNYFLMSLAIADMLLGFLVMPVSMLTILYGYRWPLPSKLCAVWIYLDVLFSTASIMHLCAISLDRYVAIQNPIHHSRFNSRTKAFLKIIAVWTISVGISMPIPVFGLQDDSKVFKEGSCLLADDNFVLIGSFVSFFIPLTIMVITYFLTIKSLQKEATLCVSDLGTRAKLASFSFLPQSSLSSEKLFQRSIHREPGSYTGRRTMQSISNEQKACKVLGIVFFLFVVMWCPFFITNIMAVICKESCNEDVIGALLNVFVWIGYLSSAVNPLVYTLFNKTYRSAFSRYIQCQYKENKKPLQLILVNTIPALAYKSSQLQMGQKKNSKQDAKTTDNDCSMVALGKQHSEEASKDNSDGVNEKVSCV

Structure (SMILES)	EC50
N#Cc1c(F)ccc2c(C3=CCCNC3)c[nH]c12	< 0.1 µM
C1=C(c2csc3ccccc23)CNCC1	< 0.1 µM
N#Cc1cc(F)cc2c(C3=CCCNC3)c[nH]c12	< 0.1 µM
Oc1cccc2[nH]cc(C3=CCCNC3)c12	< 0.1 µM
Fc1ccc2c(C3=CCCNC3)n[nH]c2c1F	< 0.1 µM
COc1cc(Cl)c2[nH]cc(C3=CCCNC3)c2c1	< 0.1 µM

Source: ChEMBL document CHEMBL6109168, “Novel Compounds as 5-HT2A Receptor Modulators for Treating Psychiatric and Neurological Disorders” (ACS Med Chem Lett, 2025)
